# “And” between values parts separate entries of the source, which are not always exact repeats. Identical values can stand only once. Like-named read-outs stand apart in the source and are kept apart here.
# Columns and labels:
# [1] = mean population model parameter; cited from earlier work
# [2] = paracetamol alone vs with semaglutide; cited from earlier work
# [3] = immediate release tablets, cited from earlier work
# [4] = final model with semaglutide covariate
# [5] = model without semaglutide covariate
# [6] = semaglutide 1.0 mg s.c. once weekly at steady state
# [7] = young adults, body weight 62–84 kg
smiles,measurement,setting,value
CC(C)c1c(C(=O)Nc2ccccc2)c(-c2ccccc2)c(-c2ccc(F)cc2)n1CC[C@@H](O)C[C@@H](O)CC(=O)O [atorvastatin],T50 estimate,atorvastatin with semaglutide,83 min
same,T50,atorvastatin with semaglutide (Figure 8),1.38 h
same,T50 estimate,atorvastatin without semaglutide,16 min
same,"ka (Placebo), Bootstrap mean [95%CI]",bootstrap 1000 replicates,6.56 [3.29–12.1] h^−1
same,"ktr (Placebo), Bootstrap mean [95%CI]",bootstrap 1000 replicates,10.4 [4.48–44.0] h^−1
same,"Θkacovariate, Bootstrap mean [95%CI]",bootstrap 1000 replicates,0.821 [0.649–0.925]
same,"Θktrcovariate, Bootstrap mean [95%CI]",bootstrap 1000 replicates,0.820 [0.629–0.972]
same,"ω^2 Ka, Bootstrap mean [95%CI]",bootstrap 1000 replicates,2.21 [1.41–3.32]
same,"ω^2 Ktr, Bootstrap mean [95%CI]",bootstrap 1000 replicates,1.82 [0.390–3.17]
same,"Between subject variability ω^2 Ka, Estimates",[4],2.03
same,"Between subject variability ω^2 Ktr, Estimates",[4],1.82
same,"Θkacovariate, Estimates",fractional reduction of ka with semaglutide (dKadplacebo),0.829
same,"Θktrcovariate, Estimates",fractional reduction of ktr with semaglutide (dKtrdplacebo),0.791
same,BSV variance (Omega^2) for ka before semaglutide covariate,[5],3.29
same,BSV variance (Omega^2) for ktr before semaglutide covariate,[5],3.19
same,ka when co-administered with semaglutide,[6],0.986 h⁻¹
same,ktr when co-administered with semaglutide,[6],1.52 h⁻¹
same,"ktr (Placebo), Estimates","transit compartment rate constant, without semaglutide",7.3 h⁻¹ and 7.28 h⁻¹
same,decrease of ka when co-administered with semaglutide,with vs without semaglutide,83%
same,decrease of ktr when co-administered with semaglutide,with vs without semaglutide,79%
same,ka,[1],3.5 h^‐1
CC(=O)Nc1ccc(O)cc1 [paracetamol],alteration in paracetamol AUC0‐5h,[2],no significant alteration
same,ka,[3],4.33 h⁻¹
same,V1/F,[3]; [7],30.7 L
same,V2/F,[3]; [7],19.9 L

# — PMC9263537 (Pharmacology Research & Perspectives, 2022)
